# Laboratory results from patent publication US8617614B2, “Sustained release preparation for tissue regeneration therapy” (Ono Pharmaceutical Co., Ltd., priority 2006, dated 2013).
# Tests used:
# [1] = tested on: hippocampal CA1 region nerve cells; assay: Number of nerve cells in hippocampal CA1 region, rat 4-VO model (Nissl staining); assay type: in vivo
# EGF = EGF production promoting effect, angiogenesis kit culture, ELISA; assay type: cell-based, human; conditions: 100 nmol/L
# Protocol: (§1) An angiogenesis kit (Kurabo Industries Ltd.) composed of normal human umbilical vein endothelial cells and normal human skin fibroblasts was procured and used.
# (§2) Using a carbon dioxide incubator (BNA-121D) and using Angiogenesis Culture 2 provided with the angiogenesis kit as the liquid culture, culturing was carried out in a wet environment at 37° C. with 5% carbon dioxide/95% air.
# (§3) Immediately after the kit arrived, the cells were cultured for 3 hours, following which the liquid culture was replaced and culturing was continued. Three days after the start of culturing, the liquid culture was again replaced. Six days after the start of culturing, treatment with the present drug was carried out by replacing the liquid culture. The treatment concentration was set to 100 nmol/L in each case. DMSO treatment was carried out as a negative control. Six, 24, 48 and 72 hours after treatment with the present drug, the culture supernatant was collected and furnished for measurement of the growth factors. The measured growth factors were EGF and SDF-1.
# (§4) The culture supernatant was measured with the following ELISA kits.
# Human EGF Immunoassay (R&D Systems Inc., DEG00)
# [2] = Influence on body weight, STZ induced diabetes model; assay type: in vivo; conditions: STZ rat, Test Group 3: 3 mg/kg oral twice daily
# Protocol: Female Sprague-Dawley rats (8- to 11-week-old; Japan SLC, Inc.) were intraperitoneally administered 40 mg/kg of a citrate buffer (pH, approx. 4.5) of streptozotocin (STZ; Sigma). A normal control group was intraperitoneally given only the citrate buffer.
# Administration was carried out in accordance with the intended route of administration for clinical use. In Test Group 3, forced administration was carried out orally using a disposable syringe barrel and a rat stomach probe. In Test Group 4, intramuscular administration was carried out uniformly at four places within the muscle along the sciatic nerve in the femoral portion of the left leg. For subcutaneous administration in test Group 5, the animals were ether anesthetized, and subcutaneous administration was carried out in the dorsal region using a disposable syringe barrel and a disposable 25 G syringe needle. The volume of solution administered was computed based on the latest body weight.
# The rat body weights were measured before test substance administration and 14 weeks after the start of test substance administration.
# [3] = tested on: STZ induced diabetes model; assay: Nephropathy ameliorating action: 24 h urinary excretion, STZ induced diabetes model; assay type: in vivo; conditions: urine, week 12; STZ rat; Test Group 3: 3 mg/kg oral twice daily
# Protocol: Female Sprague-Dawley rats (8- to 11-week-old; Japan SLC, Inc.) were intraperitoneally administered 40 mg/kg of a citrate buffer (pH, approx. 4.5) of streptozotocin (STZ; Sigma). A normal control group was intraperitoneally given only the citrate buffer. Administration was carried out in accordance with the intended route of administration for clinical use. In Test Group 3, forced administration was carried out orally using a disposable syringe barrel and a rat stomach probe. In Test Group 4, intramuscular administration was carried out uniformly at four places within the muscle along the sciatic nerve in the femoral portion of the left leg. For subcutaneous administration in test Group 5, the animals were ether anesthetized, and subcutaneous administration was carried out in the dorsal region using a disposable syringe barrel and a disposable 25 G syringe needle. The volume of solution administered was computed based on the latest body weight. In week 12 from the start of test substance administration, the rats were transferred to a metabolic cage, given water ad libitum, and the urine was collected for 24 hours. […] Using the 7170 Clinical Analyzer (Hitachi, Ltd.), the total urinary protein (pyrogallol red method), creatinine (creatinase/F-DAOS method) and urine sugar were measured.
# [4] = Blood concentration measurement test; assay type: in vivo; conditions: male, Crl:CD (Sprague-Dawley), rat, plasma, 10 mg/kg
# Protocol: Male Crl:CD (Sprague-Dawley) rats (SPF; Charles River Japan; 8-week-old) were subcutaneously administered the various preparations (microspheres) shown in Table 9 below at a dose of 5 mL/kg under non-fasting conditions. […] The blood thus obtained was centrifuged at 12,000 rpm for 2 minutes, and the supernatant was collected as plasma.
# Blood concentration measurements of the present drug in the resulting plasma were carried out by a LC/MS/MS method. Pretreatment of the plasma consisted of adding an internal standard solution to the plasma and diluting with water, then loading into a solid-phase extraction cartridge column (ODS-B) and deproteinization by rinsing with water, followed by elution with methanol, concentration, and drying to hardness. The residue thus obtained was dissolved by adding 0.1% aqueous acetic acid/acetonitrile, and the resulting solution was poured into the LC/MS/MS apparatus.
# • Present drug (Precursor ion (m/z)*: 429.2; Product ion (m/z)*: 79.2) • Internal standard (Precursor ion (m/z)*: 445.4; Product ion (m/z)*: 168.1) • *: Mass-to-charge ratio Retention time for present drug: 8.15 minutes • Test Group 1: Microspheres of Test Preparation 1 were administered subcutaneously at a dose of the present drug of 10 mg/kg. • Test Group 2: Microspheres of Test Preparation 2 were administered subcutaneously at a dose of the present drug of 10 mg/kg. • Test Group 3: Administered subcutaneously at a dose of the present drug of 10 mg/kg. • Test Group 4: Administered orally at a dose of the present drug of 10 mg/kg.
# The test preparations used on the respective dose groups were formulated as shown below in Table 9. Each of the test preparations was prepared in general accordance with the method described in Preparation Example 1.
# SDF-1 = SDF-1 production promoting effect, angiogenesis kit culture, ELISA; assay type: cell-based, human; conditions: 100 nmol/L
# Protocol: as §1, §2, §3, §4
# Human SDF-1α Immunoassay (R&D Systems Inc., DSA00)
# [5] = culture supernatant 72 hours after treatment
# [6] = po, Test Group 4: present drug oral 10 mg/kg
# [7] = sc, Test Group 3: present drug s.c. 10 mg/kg
structure (smiles),measurement,setting,value
"O=C(O)COc1cccc2c1CCC=C2CCO/N=C(\c1ccccc1)c1cccnc1 [present drug, ({5-[2-({[(1E)-phenyl(pyridin-3-yl)methylene]amino}oxy)ethyl]-7,8-dihydronaphthalen-1-yl}oxy)acetic acid]",number of hippocampal CA1 pyramidal nerve cells relative to the group given the medium (Test Group 3),"[1]; rat 4-VO Test 1, day 42, s.c. twice daily, present drug 10, ornoprostil 0.1, PGE1•αCD 1.5 and 3 mg/kg",significant increase
same,decrease in the number of hippocampal CA1 region nerve cells relative to Test Group 1,"[1]; rat 4-VO Test 2, Test Group 2: 10 mg/kg oral twice daily, day 8",significant suppression
same,number of hippocampal CA1 region nerve cells,"[1]; rat 4-VO Test 2, Test Group 7: medium up to day 8, 10 mg/kg oral for 34 days from day 9",increasing trend
same,number of hippocampal CA1 region nerve cells relative to Test Group 4,"[1]; rat 4-VO Test 2, oral 1 mg/kg (Test Group 3)",significant increases
same,number of hippocampal CA1 region nerve cells relative to Test Group 4,"[1]; rat 4-VO Test 2, oral 10 mg/kg (Test Group 6)",significant increases
same,EGF relative to the solvent control group,EGF; 72 hours after treatment,significantly increased
same,"EGF, Drug group",EGF; [5],4995 ± 442 pg/mL
same,Body weight (g) 0 weeks,[2],219.1 ± 12.2 g
same,body weight relative to Test Group 2,[2]; week 14,significant weight decreased
same,Total excretion (mg/24 hrs) Creatinine,[3],116.76 ± 58.15 mg/24 hrs
same,Total excretion (mg/24 hrs) Total protein,[3],245.7 ± 231.9 mg/24 hrs
same,concentration at 1 hour,[4]; [6],785 ng/mL
same,concentration at 2 hours,[4]; [6],982 ng/mL
same,concentration at 4 hours,[4]; [6],1320 ng/mL
same,concentration at 8 hours,[4]; [6],705 ng/mL
same,concentration at 1 day,[4]; [6],80 ng/mL
same,concentration at 3 days,[4]; [6],0.04 ng/mL
same,concentration at 1 hour,[4]; [7],1750 ng/mL
same,concentration at 2 hours,[4]; [7],1400 ng/mL
same,concentration at 4 hours,[4]; [7],685 ng/mL
same,concentration at 8 hours,[4]; [7],870 ng/mL
same,concentration at 12 hours,"[4]; sc, Test Group 3: present drug s.c. 10 mg/kg, 12 hours",204 ng/mL
same,concentration at 1 day,[4]; [7],1.05 ng/mL
same,concentration at 2 days,"[4]; sc, Test Group 3: present drug s.c. 10 mg/kg, 2 days",< 0.2 ng/mL
same,concentration at 3 days,[4]; [7],0.05 ng/mL
same,SDF-1 relative to the solvent control group,SDF-1; 72 hours after treatment,significantly increased
same,"SDF-1, Drug group",SDF-1; [5],383 ± 36.0 pg/mL
